According to patent US20140364431A1, “Quinoline and cinnoline derivatives and their applications” (Shenyang Pharmaceutical University, priority 2011, published 2014):
≈ marks a conversion by molar mass, not a printed value. Counter-ions that a name gives are not always drawn. Like-named read-outs stand apart in the source and are kept apart here.

What was measured:
[1] = system: SMMC-7721 (hepatoma cell); experiment: In vitro anti-tumor cellular activity (MTT), SMMC-7721; type: cell-based, human; details: Homo sapiens, read-out: SMMC-7721 IC50
[2] = system: HT-29 (colon cancer cell); experiment: In vitro anti-tumor cellular activity (MTT), HT-29; type: cell-based, human; details: Homo sapiens, read-out: HT-29 IC50
[3] = system: H460 (human lung cancer cell); experiment: In vitro anti-tumor cellular activity (MTT), H460; type: cell-based; details: Homo sapiens, read-out: H460 IC50
[4] = system: MKN-45 (human gastric carcinoma cell); experiment: In vitro anti-tumor cellular activity (MTT), MKN-45; type: cell-based; details: Homo sapiens, read-out: MKN-45 IC50
[5] = system: U87MG (Human malignant glioblastoma cells); experiment: In vitro anti-tumor cellular activity (MTT), U87MG; type: cell-based; details: Homo sapiens, U-87 MG, read-out: U87MG IC50
[6] = molecular target: T1, c-Met (His-tagged recombinant human Met (Amino acids 974-ends)) (Homo sapiens, UniProt P08581); experiment: c-Met kinase assay (ELISA); type: biochemical; details: 50 pM c-Met, 5 μM ATP, 20 min
T1 construct: His-tagged recombinant human Met (Amino acids 974-ends); His; host or cells: baculovirus expression
T1 sequence (P08581 974-1390 limits assumed): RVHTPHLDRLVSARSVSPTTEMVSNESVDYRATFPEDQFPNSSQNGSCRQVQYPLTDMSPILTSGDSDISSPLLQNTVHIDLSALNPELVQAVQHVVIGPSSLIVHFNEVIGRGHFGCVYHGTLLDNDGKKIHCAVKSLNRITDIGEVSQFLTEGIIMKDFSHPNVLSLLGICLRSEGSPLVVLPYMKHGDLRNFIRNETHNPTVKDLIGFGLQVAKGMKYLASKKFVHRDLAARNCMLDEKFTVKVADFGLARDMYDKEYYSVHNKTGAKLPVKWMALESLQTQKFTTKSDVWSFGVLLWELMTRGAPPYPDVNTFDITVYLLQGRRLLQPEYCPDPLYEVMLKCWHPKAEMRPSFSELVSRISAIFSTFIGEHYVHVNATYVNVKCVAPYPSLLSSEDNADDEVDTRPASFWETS
Method: c-Met kinase activity was measured with an ELISA reader.
The reaction mixture was removed by washing with 0.2 μg/mL conjugated horseradish peroxidase (HRP) monoclonal antibody specific for phosphotyrosine (PY20) detecting phosphorylation of the substrate polymer. 1M phosphoric acid was added to terminate the color, the chromogenic substrate (TMB) was tested by spectrophotometry at 450 nm.

Row | SMILES | IC50 ([1]; MTT, 72 hours, SMMC-7721) [µg/mL] | IC50 ([2]; MTT, 72 hours, HT-29) [µg/mL] | IC50 ([3]; NCI-H460, MTT, 72 hours, H460) [µg/mL] | IC50 ([4]; MTT, 72 hours, MKN-45) [µg/mL] | IC50 ([5]; MTT, 72 hours, U87MG) [µg/mL] | IC50 [6] [nM] | IC50 ([1]; SMMC-7721, 72 h) [µg/mL] | IC50 ([2]; HT-29, 72 h) [µg/mL] | IC50 ([3]; NCI-H460, 72 h) [µg/mL] | IC50 ([4]; MKN-45, 72 h) [µg/mL] | IC50 ([5]; 72 h) [µg/mL]
1 | COc1cc2c(Oc3ccc(NC(=O)c4cn(-c5ccc(F)cc5)c5ccccc5c4=O)cc3F)ccnc2cc1OCCCN1CCN(C)CC1 [Example 46, N-(3-fluoro-4-((6-methoxy-7-(3-(4-methyl-piperazin-1-yl)propoxy)quinolin-4-yl)oxy)phenyl)-4-oxo-1-(4-fluorophenyl)-1,4-dihydroquinoline-3-carboxamide dihydrochloride] | 1.3 | 1.5 | 0.98 | 0.67 | 0.72 | 1130 | – | – | – | – | –
2 | COc1cc2c(Oc3ccc(NC(=O)c4cn(-c5ccccc5C(F)(F)F)c5ccccc5c4=O)cc3F)ccnc2cc1OCCCN1CCOCC1.Cl.Cl [Example 48, N-(3-fluoro-4-((6-methoxy-7-(3-(morpholin-4-yl)propoxy)quinolin-4-yl)oxy)phenyl)-4-oxo-1-(2-(trifluoromethyl)phenyl)-1,4-dihydroquinoline-3-carboxamide dihydrochloride] | 0.56 | 0.65 | 0.7 | 1.1 | 0.88 | 1350 | – | – | – | – | –
3 | COc1cc2c(Oc3ccc(NC(=O)c4cn(-c5ccccc5F)c5ccccc5c4=O)cc3F)ccnc2cc1OCCCN1CCN(C)CC1 [Example 52, N-(3-fluoro-4-((6-methoxy-7-(3-(4-methylpiperazin-1-yl)propoxy)quinolin-4-yl)oxy)phenyl)-1-(2-fluorophenyl)-4-oxo-1,4-dihydroquinoline-3-carboxamide] | 1.8 (≈ 2.55 µM) | 1.1 (≈ 1.56 µM) | 1.4 (≈ 1.98 µM) | 0.67 (≈ 0.949 µM) | 0.87 (≈ 1.23 µM) | 2270 | – | – | – | – | –
4 | COc1cc2c(Oc3ccc(NC(=O)c4cn(-c5ccccc5Cl)c5ccccc5c4=O)cc3F)ccnc2cc1OCCCN1CCC(C)CC1 [Example 54, N-(3-fluoro-4-((6-methoxy-7-(3-(4-methylpiperidin-1-yl)propoxy)quinolin-4-yl)oxy)phenyl)-1-(2-chlorophenyl)-4-oxo-1,4-dihydroquinoline-3-carboxamide] | 0.52 (≈ 0.721 µM) | 0.63 (≈ 0.874 µM) | 0.63 (≈ 0.874 µM) | 0.49 (≈ 0.679 µM) | 0.14 (≈ 0.194 µM) | 971 | – | – | – | – | –
5 | COc1cc2c(Oc3ccc(NC(=O)c4cn(-c5ccccc5Cl)c5ccccc5c4=O)cc3F)ccnc2cc1OCCCN1CCCC1 [Example 55, N-(3-fluoro-4-((6-methoxy-7-(3-(pyrrolidin-1-yl)propoxy)quinolin-4-yl)oxy)phenyl)-1-(2-chlorophenyl)-4-oxo-1,4-dihydroquinoline-3-carboxamide] | – | – | – | – | – | 1300 | 0.53 (≈ 0.765 µM) | 0.37 (≈ 0.534 µM) | 0.74 (≈ 1.07 µM) | 0.29 (≈ 0.418 µM) | 0.18 (≈ 0.26 µM)
6 | COc1cc2c(Oc3ccc(NC(=O)c4cn(-c5ccccc5C(F)(F)F)c5ccccc5c4=O)cc3F)ccnc2cc1OCCCN1CCC(C)CC1 [Example 57, N-(3-fluoro-4-((6-methoxy-7-(3-(4-methylpiperidin-1-yl)propoxy)quinolin-4-yl)oxy)phenyl)-4-oxo-1-(2-(trifluoromethyl)phenyl)-1,4-dihydroquinoline-3-carboxamide] | 0.58 (≈ 0.768 µM) | 0.87 (≈ 1.15 µM) | 1.3 (≈ 1.72 µM) | 0.91 (≈ 1.21 µM) | 1.1 (≈ 1.46 µM) | 1060 | – | – | – | – | –
7 | COc1cc2c(Oc3ccc(NC(=O)c4nn(-c5ccc(Cl)cc5)c5ccccc5c4=O)cc3F)cnnc2cc1OCCCN1CCC(C)CC1 [Example 67, N-(3-fluoro-4-((6-methoxy-7-(3-(4-methylpiperidin-1-yl)propoxy)cinnolin-4-yl)oxy)phenyl)-1-(4-chlorophenyl)-4-oxo-1,4-dihydrocinnoline-3-carboxamide] | 1.6 (≈ 2.21 µM) | 0.96 (≈ 1.33 µM) | 2.5 (≈ 3.46 µM) | 2.2 (≈ 3.04 µM) | 1.7 (≈ 2.35 µM) | 1520 | – | – | – | – | –
8 | COc1cc2c(Oc3ccc(NC(=O)c4nn(-c5ccc(Br)cc5F)c5ccccc5c4=O)cc3F)cnnc2cc1OCCCN1CCOCC1 [Example 68, N-(3-fluoro-4-((6-methoxy-7-(3-(morpholin-4-yl)propoxy)cinnolin-4-yl)oxy)phenyl)-1-(4-bromo-2-fluorophenyl)-4-oxo-1,4-dihydrocinnoline-3-carboxamide] | 2.9 (≈ 3.75 µM) | 2.1 (≈ 2.71 µM) | 1.5 (≈ 1.94 µM) | 2.5 (≈ 3.23 µM) | 1.3 (≈ 1.68 µM) | 1160 | – | – | – | – | –
9 | COc1cc2c(Oc3ccc(NC(=O)c4nn(-c5ccc(F)cc5)c5ccccc5c4=O)cc3F)cnnc2cc1OCCCN1CCN(C)CC1 [Example 69, N-(3-fluoro-4-((6-methoxy-7-(3-(4-methylpiperazin-1-yl)propoxy)cinnolin-4-yl)oxy)phenyl)-1-(4-fluorophenyl)-4-oxo-1,4-dihydrocinnoline-3-carboxamide] | 1.3 (≈ 1.84 µM) | 2.1 (≈ 2.97 µM) | 2.3 (≈ 3.25 µM) | 2.6 (≈ 3.67 µM) | 1.8 (≈ 2.54 µM) | 1550 | – | – | – | – | –

Molecules with a lower IC50 [6], results first:

Row | IC50 ([1]; MTT, 72 hours, SMMC-7721) [µg/mL] | IC50 ([2]; MTT, 72 hours, HT-29) [µg/mL] | IC50 ([3]; NCI-H460, MTT, 72 hours, H460) [µg/mL] | IC50 ([4]; MTT, 72 hours, MKN-45) [µg/mL] | IC50 ([5]; MTT, 72 hours, U87MG) [µg/mL] | IC50 [6] [nM] | SMILES | IC50 ([1]; SMMC-7721, 72 h) [µg/mL] | IC50 ([2]; HT-29, 72 h) [µg/mL] | IC50 ([3]; NCI-H460, 72 h) [µg/mL] | IC50 ([4]; MKN-45, 72 h) [µg/mL] | IC50 ([5]; 72 h) [µg/mL]
10 | 1.1 (≈ 1.56 µM) | 0.57 (≈ 0.809 µM) | 0.54 (≈ 0.766 µM) | 0.34 (≈ 0.482 µM) | 0.49 (≈ 0.695 µM) | 568 | COc1cc2c(Oc3ccc(NC(=O)c4cn(-c5ccccc5F)c5ccccc5c4=O)cc3F)ccnc2cc1OCCCN1CCC(C)CC1 [Example 47, N-(3-fluoro-4-((6-methoxy-7-(3-(4-methylpiperidin-1-yl)propoxy)quinolin-4-yl)oxy)phenyl)-1-(2-fluorophenyl)-4-oxo-1,4-dihydroquinoline-3-carboxamide] | – | – | – | – | –
11 | 0.87 (≈ 1.26 µM) | 0.38 (≈ 0.55 µM) | 0.58 (≈ 0.84 µM) | 0.45 (≈ 0.651 µM) | 0.35 (≈ 0.507 µM) | 869 | COc1cc2c(Oc3ccc(NC(=O)c4cn(-c5ccccc5F)c5ccccc5c4=O)cc3F)ccnc2cc1OCCCN1CCCCC1 [Example 50, N-(3-fluoro-4-((6-methoxy-7-(3-(piperidin-1-yl)propoxy)quinolin-4-yl)oxy)phenyl)-1-(2-fluorophenyl)-4-oxo-1,4-dihydroquinoline-3-carboxamide] | – | – | – | – | –
12 | 0.53 (≈ 0.783 µM) | 0.41 (≈ 0.606 µM) | 0.58 (≈ 0.857 µM) | 0.24 (≈ 0.355 µM) | 0.28 (≈ 0.414 µM) | 296 | COc1cc2c(Oc3ccc(NC(=O)c4cn(-c5ccccc5F)c5ccccc5c4=O)cc3F)ccnc2cc1OCCCN1CCCC1 [Example 51, N-(3-fluoro-4-((6-methoxy-7-(3-(pyrrolidin-1-yl)propoxy)quinolin-4-yl)oxy)phenyl)-1-(2-fluorophenyl)-4-oxo-1,4-dihydroquinoline-3-carboxamide] | – | – | – | – | –
13 | 0.29 (≈ 0.41 µM) | 0.93 (≈ 1.32 µM) | 0.79 (≈ 1.12 µM) | 0.47 (≈ 0.665 µM) | 0.21 (≈ 0.297 µM) | 707 | COc1cc2c(Oc3ccc(NC(=O)c4cn(-c5ccccc5Cl)c5ccccc5c4=O)cc3F)ccnc2cc1OCCCN1CCCCC1 [Example 53, N-(3-fluoro-4-((6-methoxy-7-(3-(piperidin-1-yl)propoxy)quinolin-4-yl)oxy)phenyl)-1-(2-chlorophenyl)-4-oxo-1,4-dihydroquinoline-3-carboxamide] | – | – | – | – | –
14 | 0.74 (≈ 1.02 µM) | 0.2 (≈ 0.277 µM) | 0.75 (≈ 1.04 µM) | 0.21 (≈ 0.291 µM) | 0.12 (≈ 0.166 µM) | 138 | COc1cc2c(Oc3ccc(NC(=O)c4cn(-c5ccccc5Cl)c5ccccc5c4=O)cc3F)ccnc2cc1OCCCN1CCN(C)CC1 [Example 56, N-(3-fluoro-4-((6-methoxy-7-(3-(4-methylpiperazin-1-yl)propoxy)quinolin-4-yl)oxy)phenyl)-1-(2-chlorophenyl)-4-oxo-1,4-dihydroquinoline-3-carboxamide] | – | – | – | – | –
15 | 1.7 (≈ 2.39 µM) | 1.4 (≈ 1.97 µM) | 0.89 (≈ 1.25 µM) | 2.4 (≈ 3.37 µM) | 2.1 (≈ 2.95 µM) | 562 | COc1cc2c(Oc3ccc(NC(=O)c4nn(-c5ccc(Cl)cc5)c5ccccc5c4=O)cc3F)cnnc2cc1OCCCN1CCOCC1 [Example 66, N-(3-fluoro-4-((6-methoxy-7-(3-(morpholin-4-yl)propoxy)cinnolin-4-yl)oxy)phenyl)-1-(4-chlorophenyl)-4-oxo-1,4-dihydrocinnoline-3-carboxamide] | – | – | – | – | –
